Reference: patent US8337828B2, “Use of thymosin alpha 1, alone or in combination with PTX3 or ganciclovir, for the treatment of cytomegalovirus infection” (priority 2006, dated 2012)
Ends that are not written are not given here.

Legend:
NK cells = type: in vivo, BALB/c mice; conditions: 200 μg/kg for a week
Procedure: Phenotypic analysis of total (FIG. 2a, FIG. 2b) or NK (FIG. 2c) cells from spleen of MCMV-infected BALB/c mice untreated (−) or treated (+) with 200 μg/kg Thymosin alpha 1 for a week; None represents uninfected mice. Numbers refer to the percentage of positive cells on FACS analysis, a week after the infection. Histograms are representative of 1 out of 4 independent experiments. (FIG. 2d) Cytotoxic activity (by standard 51Cr-release assay against YAC-1 targets) and frequency of IFN-.-producing NK cells by ELISPOT assay from mice treated as above. Bars indicate the standard errors. *P<0.05, infected vs uninfected mice. **P<0.05, Thymosin alpha 1-treated vs untreated infected mice. The results shown are from 5 independent experiments. Flow cytometry analyses. After blocking of FcRs with the anti-CD16/32 (2.4G2) antibody, cells were analyzed for antigen expression with a FACScan flow cytofluorometer (Becton Dickinson, Mountain View, Calif.) equipped with CELLQuest™ software. Control staining of cells with irrelevant Ab was used to obtain background fluorescence values. Abs were from PharMingen. NK cell cytotoxic activity. NK cells, purified from spleens by DX5 microbeads (Miltenyi Biotec), were defined as NK1.1+CD3-cells. NK cytolytic activity was assessed against 51 Cr-labeled YAC-1 lymphoma cells (Blood 2005; 106:4397-4406). Quantification of cytokines by ELISA and ELISPOT assays. The levels of cytokines in the culture supernatants of mitogen-stimulated spleen cells (48 h stimulation with 10 μg/ml ConA) or MCMV-pulsed DC (24 h) were determined by ELISA (R&D Systems and PBL, Biomedical Lab, Milan, Italy). The detection limits (pg/ml) of the assays were <16 for IL-12 p70, <10 for IFN-., <3 for IL-10 and <10 for IFN-a. IFN-.-producing NK cells were enumerated by ELISPOT assay on purified NK (Virus Res. 2003; 98:17-467 25). Results are expressed as the mean number of cytokine-producing cells (±SE) per 10^5 cells, calculated using replicates of serial 2-fold dilutions of cells.

MCMV = MCMV infection in mice, virus titers by standard plaque assay on tissues; type: in vivo, BALB/c and C57BL6 mice
Procedure: BALB/c (FIG. 1a) and C57BL6 (FIG. 1b) mice were infected with 1×10^5 or 5×10^5 PFU of MCMV, respectively. Virus titers were quantified on MEF cells by standard plaque assay on tissues removed at different times (FIG. 1a) or a week after infection (FIG. 1b) and expressed as log 10(mean±standard errors, SE). Thymosin alpha 1 (200 μg/kg given for 7 or 14 days) and GCV (40 mg/kg given three times a week) were administered beginning the day of the infection. Controls received the scrambled peptide. Results are representative of 4 independent experiments. Bars indicate the standard errors. *P<0.05, viral load between treated and untreated mice.
BALB/c or C57BL6 mice were infected with 10^5 or 5×10^5 PFU of MCMV, respectively. Virus titers, expressed as log 10, were quantified on MEF cells by standard plaque assay on lung tissues removed 7 days after the infection. Tα1 (200 μg/kg/daily for a week) and/or GCV (40 mg/kg, three times a week) were administered beginning the day of the infection. Cytokine (pg/ml) levels in culture supernatants of spleen cells (7 days) were determined by ELISA assay. Bars indicate the standard errors. *P<0.05, treated vs untreated mice. Results are representative of 3 independent experiments.
Inbred C57BL6 and BALB/c mice were injected intraperitoneally (i.p.) with 1×10^5 (BALB/c) or 5×10^5 (C57BL6) plaque forming units (PFU) of MCMV. Virus titers were quantified on MEF cells by standard plaque assay on tissues removed a day after treatment. Treatments were as follow: Tα1 ([…]) and PTX3 (1 mg/k/ip) (SIGMA-Tau, Pomezia, Rome, Italy) were given daily for 7 consecutive days beginning the day of the infection. Controls received the scrambled peptide. All organs from uninfected animals were negative viruses. Virus titers are expressed as log 10 (mean±standard errors, SE).
Mice. Wild-type (WT) inbred C57BL6 and BALB/c mice, 8 to 12 weeks old, were purchased from Charles River Breeding Laboratories (Calco, Italy). Pairs of homozygous TLR9-(TLR9−/−), TLR4-(TLR4−/−), and MyD88-(MyD88−/−)-deficient mice (on the C57BL6 background), were bred under specific pathogen-free conditions at the breeding facilities of the University of Perugia, Perugia, Italy. Experiments were performed following protocols approved by the institutional animal committee and in accordance with European Economic Community Council Directive as well as institutional animal care and use guidelines.
Virus, infection and treatments. Stocks of Smith strain MCMV salivary gland extracts were prepared from BALB/c mice and titered in a standard plaque assay on BALB/c murine embryonic fibroblast (MEF) cells (J. Gen. Virol. 2002; 83:2983-2993). Mice were injected intraperitoneally (i.p.) with 1×10^5 (C57BL6) plaque forming units (PFU) of MCMV. Virus titers were quantified on MEF cells by standard plaque assay on tissues removed at different times. Treatments were as follows: Thymosin alpha 1 and the scrambled polypeptide (both from SciClone Pharmaceuticals, San Mateo, CA) were supplied as purified (the endotoxin levels were <0.03 pg/ml, by a standard limulus lysate assay) sterile, lyophilized, acetylated polypeptide. The sequences were as follows: Ac-Ser-Asp-Ala-Ala-Val-Asp-Thr-Ser-Ser-Glu -Ile-Thr-Thr-Lys-Asp-Leu-Lys-Glu-Lys-Lys-Glu-Val-Glu-Glu-Ala-Glu-Asn-O (Tα1) SEQ ID NO:1 and Ac-Ala-Lys-Ser-Asp-Val-Lys-Ala-Glu-Thr-Ser-Ser-Glu-Ile-Asp-Thr-Thr-Glu-Leu -Asp-Glu-Lys-Val-Glu-Val-Lys-Ala-Asn-Glu-OH (scrambled peptide) SEQ ID NO:2. The lyophilized powders were reconstituted in sterile water and 200 μg/kg/i.p. were given daily for 7 or 14 consecutive days beginning the day of the infection. Gancyclovir (GCV) (Cymevene; from Recordati, Milan, Italy) was administered at 40 mg/kg/i.p. three times a week, every other day, beginning 6 h after infection. Controls received the scrambled peptide or the diluent alone.
Plaque assay. Plaque assay was determined on cells grown to subconfluence and incubated with serially diluted virus samples for 2 h at 37° C. (10). […]

[1] = spleen, MCMV-infected BALB/c mice

Ac-Ser-Asp-Ala-Ala-Val-Asp-Thr-Ser-Ser-Glu -Ile-Thr-Thr-Lys-Asp-Leu-Lys-Glu-Lys-Lys-Glu-Val-Glu-Glu-Ala-Glu-Asn-O (Ac-SDAAVDTSSEITTKDLKEKKEVEEAEN) [Thymosin alpha 1, acidic peptide present in thymus extract with immunoregulatory properties]
frequency of IFN-.-producing cells (ELISPOT) (NK cells; ex-vivo purified splenic NK cells): significantly up-regulated | expansion of CD4+ or CD8+ T cells (NK cells; [1]): not affecting the expansion | expansion of NK1.1+ NK cells (NK cells; [1]): expanded | expression of the activation marker CD69 on NK cells (NK cells; [1]): increased expression | viral load in different visceral organs (MCMV; 200 μg/kg for 7 days, both susceptible (BALB/c) and resistant (C57BL6) mice): significantly decreased the viral load | viral load (MCMV; BALB/c mice infected with a higher PFU (data not shown)): significantly decreased the viral load | viral load in visceral organs (MCMV; Thymosin alpha 1 given for 14 days, compared with 7 days): higher | viral titers in the lung (MCMV; Tα1 alone, 200 μg/kg/ip daily for 7 days, BALB/c or C57BL6 mice): decreased the viral titers | viral load in salivary gland and liver (MCMV; resistant (C57BL6) mice, a week after infection): particularly evident
